Results on two compounds are retold here after patent publication US8815517B2, “Methods for identifying functionally related genes and drug targets” (Ribonomics, Inc., priority 1999, dated 2014).

Common to all, as to type: cell-based, murine
For assay [1], the system named is G11 cells. In words: Induction of differentiation of HuB (Hel-N2) stably transfected P19 (G11) cells. The following applies: 5% DMSO, harvested after about eight days. The procedure:
The cells were then plated into two 100 mm gelatin-coated tissue culture plates. Cells were harvested after an additional four days. […] Neuronal differentiation was induced by treating 5×10^5 G11 or P19 cells placed on a 60 mm petri dish with 0.5 μM RA (Sigma-Aldrich, St. Louis, Mo., Catalog # R2625). Muscle differentiation was induced by treating 5×10^5p19 cells placed on a 60 mm petri dish with 5% DMSO (Sigma-Aldrich, St. Louis, Mo., Catalog # D2650). After two days, 25% of the cells that had formed into clumps were removed, placed in new petri dishes, and supplemented with fresh medium and RA or DMSO. Following an additional two days, cell aggregates were washed once with phosphate-buffered saline (PBS) and trypsinized. The cells were then plated into two 100 mm gelatin-coated tissue culture plates. Cells were harvested after an additional four days. […] Cell extracts and immunoprecipitations were performed as described in Example 1. Monoclonal anti-gene 10 (g10) antibodies were obtained from Duke University (Durham, N.C.) as previously described in Examples 1 and 2.

For assay [2], the system named is G11 cells. In words: Quantitative PCR of CACN, CELSR and MBNL RNA expression in G11 cells over the time course of differentiation. The following applies: time course of one to nine days. The method, then:
The expression of these three genes was analyzed by Quantitative RT-PCR during a time course of one to nine days of treatment with either dimethyl-sulfoxide or retinoic acid. To verify a role in neuronal differentiation, a comprehensive transcriptional analysis by Quantitative PCR was undertaken looking at the patterns of RNA expression for the […], and MBNL genes in the G11 cells (constitutively expressing HuB) and in the parental P19 cells (FIGS. 12A, 12B, and 12C).

Assay [3] deals with G11 cells. Briefly: Microarray of total cellular RNA of G11 cells, differentiated/undifferentiated. The note with it: change in amount of RNA, day 1 and day 9. The procedure: Neuronal differentiation was induced by treating 5×10^5 G11 or P19 cells placed on a 60 mm petri dish with 0.5 μM RA (Sigma-Aldrich, St. Louis, Mo., Catalog # R2625). Muscle differentiation was induced by treating 5×10^5p19 cells placed on a 60 mm petri dish with 5% DMSO (Sigma-Aldrich, St. Louis, Mo., Catalog # D2650). After two days, 25% of the cells that had formed into clumps were removed, placed in new petri dishes, and supplemented with fresh medium and RA or DMSO. Following an additional two days, cell aggregates were washed once with phosphate-buffered saline (PBS) and trypsinized. The cells were then plated into two 100 mm gelatin-coated tissue culture plates. Cells were harvested after an additional four days. […] Cell extracts and immunoprecipitations were performed as described in Example 1. Monoclonal anti-gene 10 (g10) antibodies were obtained from Duke University (Durham, N.C.) as previously described in Examples 1 and 2. Following immunoprecipitation, the associated mRNAs were identified on high density mouse 12K glass slide microarrays (Mouse cDNA microarray kit, Catalog # […], Agilent Technologies, Palo Alto, Calif.). RNA labeling and microarray analysis was performed according to the manufacturer's protocols (Agilent Technologies, Palo Alto, Calif.).

Each structure is given as a SMILES string.

Regarding `C[S+](C)[O-]` [DMSO, dimethyl-sulfoxide], in assay [1], the “muscle differentiation (morphology and markers)” value is “displayed characteristic muscle cell markers and morphology”. Moreover, the “expression patterns of the CACN, CELSR and MBNL genes” value in assay [2] is “failed to induce changes”.
Regarding `CC1=C(/C=C/C(C)=C/C=C/C(C)=C/C(=O)O)C(C)(C)CCC1` [RA, retinoic acid], in assay [3], the “ΔTotal Cellular RNA, CACN” value is given as “+1.31X”; the “ΔTotal Cellular RNA, CELSR” value is on record as −1.33X; the “ΔTotal Cellular RNA, MBNL” value is “+1.42X”.
